Consider one molecule from patent US6806267B1, “Apoptosis-inducing compounds” (priority 1998, dated 2004).

For data set [1], the system named is HL-60 cells. Kind of data set: Apoptosis in HL-60 cells, cytospin and Rapi-Diff staining.
Data set [2] relates to K562 cells. It is filed as cell-based, human. Particulars: 3 hours. As for the experimental part:
(§1) This assay was set up as described by Kohn et al., 1976 with the following modifications.
(§2) Cells were seeded at 0.4×10^6 cells/ml and were in the logarithmic phase of growth. […] Cells harvested for the experiments were at a density of 2×10^6 cells/ml.
(§3) Cells (1×10^6) were labelled with [^3H] thymidine (sp. act. 2 Ci/mmol) (0.2 μCi/ml) and 1 μM unlabelled thymidine, and incubated for 20 hr. Cells were harvested by centrifugation at 500×g for 5 mins following by two washes in PBS and the pellet was resuspended in 3 ml of PBS. Cells were aliquoted into 1 ml amounts in a 24 well plate and allowed to recover for 1 hr at 37° C. before treating with indicated compounds. Following treatment, cells were washed once in PBS and resuspended in 250 μl of PBS. An aliquot of cells (200 μl) was loaded directly onto a 25 mm diameter glass fiber filter, pore size of 0.2 μM. The cells were lysed on the filter by the addition of 5 ml lysis buffer (2% (w/v) SDS, 10 mM disodium EDTA (pH 10) supplemented with 0.5 mg/ml proteinase K. The lysis buffer was allowed to flow slowly through the filter without suction. Filters were washed using 3 ml wash solution (0.02M Na3EDTA pH 10) allowing it to flow without suction. Filters were eluted in the dark with an alkaline solution (0.04M EDTA plus tetrapropylammonium hydroxide (10% in H2O ) added in the amount required to give pH 12.1). The elution apparatus consisted of a filter funnel with output tubing passing through a peristaltic pump to a collector. Elution took place overnight at a flow rate of 0.05 ml/min. Following elution, filters were treated with 0.4 ml HCl (1N) for 1 hr at 70° C. followed by 2.5 ml NaOH (0.4N) for 30 min at room temp. Scintillation fluid (10 ml) was added and radioactivity remaining on the filters was determined by scintillation counting.

For data set [3], the system named is Jurkat cells. The format is cell-based, human. Particulars: 0.5 μM 1 hour, then etoposide 2.5 μM 1 hour. On the procedure:
as §1, §2, §3

Data set [4] concerns NFκB. The data set is described as follows: NF kappa B binding activity, Hut-78 cells. The format is cell-based, human. On the procedure:
Cells were fractionated, and nuclear extracts were prepared as described by Stylianou et al. (1992). Briefly, cells were added to ice-cold phosphate-buffered saline and centrifuged using a swing out rotor at 136×g. They were washed in buffer A (10 mM Hepes, pH 7.9, 1.5 mM MgCl2, 10 mM KCl, […] [PMSF]) and centrifuged at 10000×g for 10 min. They were treated with buffer A+0.1% (vol/vol) Nonidet P40 on ice for 10 min. They were then centrifuged at 10000×g for 10 min and the pellet was treated with buffer C (20 mM Hepes, pH 7.9, 420 mM NaCl, 1.5 mM MgCl2, 2 mM EDTA, 20% [vol/vol] glycerol, 0.5 mM PMSF) on ice for 15 min. This material was centrifuged at 10000×g for 10 min and the supernatant was added to 75 u l of buffer D [10 mM Hepes, pH 7.9, 50 mM KCl, 0.2 mM EDTA, 20% (vol/vol) glycerol, 0.5 mM PMSF] per sample. The protein concentration in this crude nuclear extract was determined using the method of Bradford (1976). Protein (4 μg) was incubated with 10000 cpm of a ^32P-labelled oligonucleotide, containing the consensus sequence for NF kappa B, with binding buffer [40% (vol/vol) glycerol, 1 mM EDTA, 10 mM Tris, pH 7.5, 100 mM NaCl, 0.1 mg/ml nuclease free BSA] and 2 μg of poly(dI-dC) at room temperature for 30 min. Samples were resolved on a 5% native polyacrylamide gel which was subsequently dried and autoradiographed at −70° C. overnight.

For data set [5], the system named is JNK1 and JNK2. The data set is described as follows: Western blot of JNK activation in Lama 84 and KYO.1 cells. The format is cell-based, human. Particulars: Lama 84 and KYO.1, 45 minutes.
In data set [6] the test system is tyrosine phosphorylated proteins. Kind of data set: Protein tyrosine phosphorylation Western blot, K562 cells. It is filed as cell-based, human. On the procedure: Jurkat and CML cells (5×10^6) were harvested by centrifuigation at 1800 g for 10 min at 4° C. After being washed once with ice-cold phosphate-buffered saline, the cell pellet was suspended in 100 μl of ice-cold lysis buffer (50 mM Tris-HCl, pH 8.0, 150 mM NaCl, 0.1%.SDS, 1% Triton X-100, 1 mM sodium 1 mM phenylmethylsulfonyl, 10 ng/ml leupeptin and 10 ng/ml of aprotinin). The cells were left to sit on ice for 10 min and then centrifuged at 20,000 g for 20 min. The resulting supernatant was stored at −70° C. until measurement of tyrosine phosphorylation. Protein determination was measured by using the Bradford assay. Equal amounts of protein were resolved by SDS-polyacrylamide gel electrophoresis in 15% gels and transferred onto polyvinylidene difluoride (PVDF) membranes. Membranes were blocked with Tris-buffered saline with Tween 20 (10 mM Tris-HCl, pH 8.0, 150 mM NaCl, 0.05% Tween 20) containing 1% w/v BSA and probed with anti-phosphotyrosine antibody. Blots were washed, incubated with goat anti-mouse IgG peroxidase conjugate and developed by ECL according to the manufacturer's recommendations.
In general terms: A western blot detects proteins with antibodies after separation by electrophoresis.

Data set [7] has as its system MCF-7 cells. Kind of data set: Apoptosis in MCF-7 cells. The format is cell-based, human. As for the experimental part:
MCF-7 cells were maintained in minimum essential medium supplemented with non-essential amino acids (1% v/v), glutamine (1 mM), FCS (10%) and sub-cultured by the protocol described for Hela cells.
In all experiments performed, cells were seeded at a density of 3×10^5 cells/ml into 24-well plates (1 ml well) and immediately treated with the indicated compound. All drugs were diluted from freshly prepared ethanol stock solutions. The final concentration of ethanol in the wells was always 1% (vol/vol); a concentration which by itself had no effect on the cells tested. Following exposure to the appropriate drug, the cells (100 μL) were cytospun onto glass slides pre-coated with poly-L-lysine using a Cytospin 3™ cytocentrifuige (Shandon). They were then stained using the Rapi-Diff kit (eosinm ethylene blue) under the conditions described by the manufacturer. The percent apoptosis and necrosis was determined by counting approximately 300 cells under a light microscope with the aid of a graticule inserted into the eyepiece. At least 3 fields of view per slide, with an average of approximately 100 cells per field, were counted.

The mark [8] stands for this setting: HL-60 cells and the 3 CML cell lines.

Consider `CN(C)C(=O)OC1=C(c2cccc3ccccc23)Oc2ccccc2-n2cccc21` [PBOX-6, 7-((Dimethylcarbamoyl)oxy)-6-(1-naphthyl)pyrrolo[2,1-d][1,5]benzoxazepine], for which, in data set [1] (HL-60 cells), the “apoptosis below a final concentration of 5 μM” value is “negligible” and the “time at which morphological signs of apoptosis became apparent” value is reported as 6 hours. Further, in data set [1] (setting [8]), the “concentration at which apoptosis was first observed” value turned out to be 5 µM and the “time after which apoptosis was first observed” value was 4 h. Besides, the degree of necrosis result in data set [1] (HL-60 cells, 10 μM, 16 hours) is recorded as “negligible”. In data set [1] (Homo sapiens, HL-60, 16 h, read-out: % Apoptosis), the cytotoxicity at 10 µM was 38.6 ± 4.6%. Besides, in data set [2], the DNA strand breaks result is “did not show any significant increase in DNA strand breaks”. In addition, the “effect of pretreatment on etoposide induced DNA strand breaks” value in data set [3] was “did not prevent the induction of DNA strand breaks by etoposide”. Also, in data set [4], the “effect on NFκB” value was “had no effect on NFκB”. In addition, in data set [5], the “activation of JNK1 and JNK2” value is listed as “found to be activated”. In addition, the “tyrosine phosphorylation status of proteins” value in data set [6] (K562, 5, 15 or 30 min) is “no effect”. The “tyrosine phosphorylation status of proteins” value in data set [6] (K562, 16 hours, proteins approx 63 kDa and 71 kDa) is on record as “increase in the phosphorylation of two proteins”. Moreover, the “concentration at which morphological features of apoptosis were first observed” value in data set [7] was determined as 5 μM.
